Data on ten compounds can be found in article PMC9820118, “Betulin Acid Ester Derivatives Inhibit Cancer Cell Growth by Inducing Apoptosis through Caspase Cascade Activation: A Comprehensive In Vitro and In Silico Study” (International Journal of Molecular Sciences, 2022).

The structures appear in SMILES notation. Like-named read-outs stand apart in the source and are kept apart here. A value given as a limit tells only on which side of the number the result lay.

Data set [1] in a line: Solubility in DMSO for stock preparation. It is filed as physicochemical.
A short description of data set [2]: Experimental lipophilicity by RP-TLC. Particulars: RP-TLC, RP-18 F254S, acetone / Tris buffer pH 7.4, extrapolated to zero acetone.
Description: The retention mechanism in the RP-TLC method is based on the partition of substances between two phases. Silica gel (RP-18 F254S plates) was used as the hydrophobic stationary phase. In contrast, the hydrophilic mobile phase was a binary mixture of acetone and an aqueous solution of TRIS buffer.
Chromatographic analysis by RP-TLC was performed an aluminum backed silica gel RP-18 F254S
phenylanthracene] and tested betulin derivatives were dissolved in chloroform to obtain a
concentration of 2 mg/mL. The prepared solutions were spotted on the plates in the amount of 2 μL.
the next step, the chromatographic chambers were saturated 30 min of the appropriate mobile phases
consisting of a mixture of acetone (Merck, Darmstadt, Germany) and aqueous solution of buffer Tris
[(tris-hydroxymethyl)aminomethane] (Fluka, Loughborough, 0.2 M, pH 7.4). The amount of acetone in
the mobile phase were in the range 60-90% in 5% increments. The chromatograms were developed for
each compound in triplicate at room temperature. The spots of betulin derivatives were visualized by
spraying the plates with the mixture of ethanol and concentrated sulfuric acid (10:1, v/v) and heating
The retardation factor (Rf) were calculated according to the equation below:
(a-the distance from the start line to the spot center, b-the distance from the start line to the mobile
The RM values were calculated by the Bate-Smith and Westall equation:
The RM0 parameters were obtained by extrapolating on the acetone content to zero, according to the
Soczewiński-Wachtmeister equation:
(C-the percentage concentration of acetone in the mobile phase, b-the slope of the regression plot).
The calibration curve was determined using eight reference compounds.
compounds were determined under the same conditions as for betulin derivatives (Table S1).
In data set [3] the test system is PC-3 cell line. The experiment in a line: Antiproliferative activity, SRB assay, PC-3 prostate carcinoma cells. To be noted: for IC50: Homo sapiens, PC-3, 72 h, read-out: Cytotoxicity IC50 against PC-3 cell line; for Calculated Selectivity Index SI, PC-3: IC50 BALB/3T3 / IC50 PC-3.
Description: (§3) The in vitro antiproliferative activity tests have been conducted against four human cancer cell lines: MV4-11 biphenotypic B myelomonocytic leukemia cell line, A549 lung carcinoma cell line, MCF-7 breast carcinoma cell line, PC-3 prostate carcinoma cell line and one normal BALB/3T3 mouse fibroblast cell line. […] All tested compounds were dissolved in DMSO and diluted with a culture medium to a desired concentration. […] Cell viability, after 72 h incubation of the cells with tested compounds, was determined using tetrazolinum dye MTT (for MV4-11 cells) or sulforhodamine B (SRB test, for MCF-7, A549, PC-3, BALB/3T3 cells) colorimetric assays.
(§4) Human biphenotypic B myelomonocytic leukemia MV4-11, murine normal fibroblast BALB/3T3 cells were obtained from the American Type Culture Collection (USA); and human lung carcinoma A549, human breast cancer MCF-7 and human prostate adenocarcinoma PC-3 were obtained from the European Collection of Authenticated Cell Cultures (UK).
(§5) MV4-11 and PC-3 cells were cultured in RPMI 1640 medium (HIIET PAS, Poland) with 1.0 mM sodium pyruvate (only MV4-11) and 10% fetal bovine serum (FBS) (all from Merck, Darmstadt, Germany). A549 cells were cultured in RPMI 1640 + Opti-MEM (1:1) ((HIIET PAS, Poland and Gibco, UK) supplemented with 5% fetal bovine serum (Merck, Darmstadt, Germany). The MCF-7 cells were cultured in Eagle medium (HIIET PAS, Poland) supplemented with 8 mg/mL of insulin and 1% of MEM NON-Essential amino acid (all Merck, Darmstadt, Germany). Normal fibroblasts BALB/3T3 cells were cultured in DMEM medium (Gibco, UK) supplemented with 10% fetal bovine serum and 1.0 mM sodium pyruvate (all from Merck, Darmstadt, Germany). All culture media were supplemented with 2 mM L-glutamine (Merck, Darmstadt, Germany), 100 units/ml penicillin, (Polfa Tarchomin S.A., Poland) and 100 µg/mL streptomycin (Merck, Darmstadt, Germany). All cell lines were grown at 37 °C in a 5% CO2 humidified atmosphere.
(§6) The solutions of the tested compounds were prepared by dissolving the substances in DMSO to the desired concentration (25 mM). Then, the tested compounds were diluted in a culture medium to reach the final concentrations. Before addition of the tested compounds (24 h prior), the cells were plated in 96-well plates (Sarstedt, Germany) at a density of 1 × 10^4, 0.75 × 10^4 (MCF-7) or 0.5 × 10^4 (A549) cells per well. The assay was performed after 72 h of exposure to 100, 10, 1 and 0.1 µM concentration of the tested agents. […] The SRB method determined the amount of cellular proteins. The concentration of the colorimetric probe (formazan in MTT or sulforhodamine B in SRB method) was determined by an optical density measurement using a standard microplate reader for 96-well plates. After optical density measurement, using the data of the mean absorbances of control cells (AbCC), the absorbances of cells treated by the tested compound (AbTr) (for each concentration separately) and the absorbance of the cultured medium (AbCM) the % of cell proliferation inhibition was calculated according to the following formula: % inh. cells proliferation=100−AbTr−AbCM/AbCC−AbCM×100
(§7) From the obtained proliferation inhibition values, effect-concentration curves of the compound used were plotted. […] IC50 values were calculated for each experiment separately using the Prolab-3 system based on Cheburator 0.4 software [36] and mean values (±SD) are presented. Each compound in each concentration was tested in triplicate in a single experiment, which was repeated 3–5 times.
The test system of data set [4] is A549 cell line. The experiment in a line: Antiproliferative activity, SRB assay, A549 lung carcinoma cells. Particulars: for IC50: Homo sapiens, A549, 72 h, read-out: Cytotoxicity IC50 against A549 cell line; for Calculated Selectivity Index SI, A549: IC50 BALB/3T3 / IC50 A549.
Description: as §3, §4, §5, §6, §7
A short description of data set [5]: Cytotoxicity, SRB assay, normal BALB/3T3 fibroblasts. To be noted: mouse. Background: The SRB assay estimates cell density from bound dye.
Description: as §3, §4, §5, §6, §7
Data set [6] deals with MV4-11 cells. The experiment in a line: Antiproliferative activity, MTT assay, MV4-11 leukemia cells. In kind it is cell-based, human. Particulars: for IC50: 72 h incubation, MTT, read-out: Growth inhibition IC50, leukemia cell line MV4-11; for Calculated Selectivity Index SI, MV4-11: IC50 BALB/3T3 / IC50 MV4-11.
Description: as §3, §4, §5, §6, §7
Data set [7] concerns MCF-7 cell line. The experiment in a line: Antiproliferative activity, SRB assay, MCF-7 breast carcinoma cells. Particulars: for IC50: Homo sapiens, MCF7, 72 h, read-out: Cytotoxicity IC50 against MCF-7 cell line; for Calculated Selectivity Index SI, MCF-7: IC50 BALB/3T3 / IC50 MCF-7.
Description: as §3, §4, §5, §6, §7
Data set [8] deals with PC-3 cells. The experiment in a line: Induction of apoptosis, Annexin V/PI staining, PC-3. In kind it is cell-based, human. Particulars: about 1.5 × IC50, 72 h. From the text: Apoptosis is one of a cell’s natural mechanisms for programmed cell death. It plays a crucial role in homeostasis by eliminating the unwanted or unnecessary cells. One of the most important functions of apoptosis is prevention of cancer. However, cancer cells often lose the ability to enter the path of apoptosis, which allows them to survive longer and grow in an uncontrolled manner. Regardless of that, apoptosis still remains the most important molecular mechanism to combat cancer cells; therefore, research is conducted to obtain agents with the ability to selectively induce apoptosis in cancer cell lines.
The MV4-11, A549 and PC-3 cells were seeded on 24-well plates (Sarstedt, Germany) for a final volume of 1.5 mL. […] After incubation, the cells were collected and 2 × 10^5 of cells were washed twice with PBS. […] Results were analyzed using Flowing software 2.5.1. […]

The test system of data set [9] is caspase-3/7. The experiment in a line: Caspase-3/7 activity (AC-DEVD-AMC substrate) in A549 cells. Set-up: key: +: plus mark represents statistically important elevated activity of caspase 3/7 compared to control. It is filed as cell-based, human. The text has this:
(§1) Caspase-3 and caspase-7 are cysteine-aspartic acid proteases that can directly execute apoptosis […] sequential activation of caspase-8 or caspase-9. Activation of these enzymes leads to apoptotic cell death; thus, measuring their activity is a good method to determine the pro-apoptotic potential of tested compounds. One of the mechanisms of betulin’s antiproliferative activity is activation of these enzymes; therefore, to further examine the mechanism of action of tested derivatives, we decided to determine their levels.
(§2) The MV4-11, A549 and PC-3 cells were seeded on 48-well plates for a final volume of 1 mL. […] After incubation, the cells were collected and centrifuged (5 min., 4 °C, 250× g). Cells were suspended in 50 µL of ice-cold lysis buffer (50 mM HEPES, 10% (w/v) sucrose, 150 mM NaCl, 2 mM EDTA and 1% (v/v) Triton X-100, pH 7.3, HIIET, Poland) and incubated 30 min. at […]. After the incubation, 40 µL of each sample was transferred to a white, 96-well plate (Corning, CA, USA) containing 160 µL of the reaction buffer (20 mM HEPES, 10 % sucrose, 100 mM NaCl, 1 mM EDTA, 10 mM DTT, 0.02 % Trition X-100, pH 7.3) (HIIET, Wroclaw, Poland) with 9 µM AC-DEVD-AMC (Cayman Chemical) fluorogenic substrate (λex = 360 nm, λem = 460 nm). The fluorescence increase correlated with the caspase-3/7 level was continuously recorded at 37 °C for 120 min using a Biotek Synergy H4 (Biokom, Warsaw, Poland). Compounds were tested in duplicates in a single experiment and each experiment was repeated at least three times independently. Results were normalized to the number of cells in each well and are reported as mean relative caspase-3/7 activity compared to the untreated control sample ± SD.

Data set [10] concerns caspase-3/7. The experiment in a line: Caspase-3/7 activity (AC-DEVD-AMC substrate) in PC-3 cells. It is filed as cell-based, human. Also noted: key to Caspase 3/7 Activity, PC-3: +: plus mark represents statistically important elevated activity of caspase 3/7 compared to control.
Description: as §1, §2

Data set [11] in a line: in vitro. To be noted: mouse.
Description: as §3, §4, §5, §6, §7

Take `C=C(C)C1CCC2(COC(=O)C=C(C)C(=O)N3CCCCC3)CCC3(C)C(CCC4C5(C)CCC(O)C(C)(C)C5CCC43C)C12` (centres unmarked) [3c]: in data set [1], the “solubility in DMSO” value is reported as “not soluble in DMSO”. The RM0 in data set [2] is 5.650.
Consider `C=C(C)[C@@H]1CC[C@]2(CO)CC[C@]3(C)[C@H](CC[C@@H]4[C@@]5(C)CC[C@H](O)C(C)(C)[C@@H]5CC[C@]43C)[C@@H]12` [Betulin 1, betulin], for which, in data set [3], the IC50 was 32.5 µM and the “Calculated Selectivity Index SI, PC-3” value was 1.0. Moreover, in data set [4], the IC50 came out at 15.5 µM and the “Calculated Selectivity Index SI, A549” value is recorded as 2.0. In data set [5], this compound displayed an IC50 at 72 h of 31.8 µM. Further, the IC50 in [6] (Homo sapiens, MV4-11, 72 h) came out at 18.2 µM. Further, the “Calculated Selectivity Index SI, MV4-11” value in [6] was 1.8. For the same compound, in data set [7], the IC50 was 38.8 µM and the “Calculated Selectivity Index SI, MCF-7” value is 0.8.
Consider `C=C(C)[C@@H]1CC[C@]2(COC(=O)CCC(=O)N3CCOCC3)CC[C@]3(C)C(CCC4[C@@]5(C)CC[C@H](O)C(C)(C)C5CC[C@]43C)C12` (some centres unmarked) [2b], for which the “Induction of apoptosis (AnV/PI), PC-3, 72 h” value in data set [8] was “shifting the ratio of the living cell population towards apoptotic and necrotic ones”. The “caspase 3/7 activity, A549” value is listed as “hugely elevated caspase 3/7 activity” in data set [9] (1.5 × IC50, 24 h, several-fold lower at 72 h) and “+” in data set [9] (+/− summary vs control). Besides, in data set [10] (1.5 × IC50, 24 and 72 h), the “caspase-3/7 activity, PC-3” value is “very high level of caspase-3/7 after 24 and 72 h”. The “Caspase 3/7 Activity, PC-3” value in data set [10] (+/− summary vs control) is “+”. Besides, in data set [2], the RM0 was 5.024. Also, in [11], the IC50 at 72 h stood at 25 µM. The “Antiproliferative Activity, PC-3” value in data set [3] (+/− summary, IC50 vs betulin 1) is given as “+”. The IC50 in data set [3] was 17.9 µM; in data set [4] it was 8.03 µM; in data set [6] (Homo sapiens, MV4-11, 72 h) it was 3.94 µM; in data set [7] it was 19.3 µM. In addition, the “Calculated Selectivity Index SI, PC-3” value in [3] is given as 1.4. The “Antiproliferative Activity, A549” value in data set [4] (+/− summary, IC50 vs betulin 1) is “+”. In addition, in data set [4], the “Calculated Selectivity Index SI, A549” value is listed as 3.1. Besides, the “Calculated Selectivity Index SI, MV4-11” value in data set [6] was 6.4. In [7], the “Calculated Selectivity Index SI, MCF-7” value is given as 1.3.
Regarding `C=C(C)C1CCC2(COC(=O)C=C(C)C(=O)N3CCSCC3)CCC3(C)C(CCC4C5(C)CCC(O)C(C)(C)C5CCC43C)C12` (centres unmarked) [3d], in [2], the RM0 is reported as 5.711. Also, in data set [11], the IC50 at 72 h is more than 50 µM. In data set [3], the IC50 came out at 46.1 µM and the “Calculated Selectivity Index SI, PC-3” value was 1.1. Further, in data set [4], the IC50 was 6.78 µM and the “Calculated Selectivity Index SI, A549” value was 7.4. In addition, the “Calculated Selectivity Index SI, MV4-11” value in [6] is 11.8. In data set [7], the IC50 is 34 µM and the “Calculated Selectivity Index SI, MCF-7” value is given as 1.5.
For `C=C(C)[C@@H]1CC[C@]2(COC(=O)CCCCCCCCCC(=O)N3CCCCC3)CC[C@]3(C)C(CCC4[C@@]5(C)CC[C@H](O)C(C)(C)C5CC[C@]43C)C12` (some centres unmarked) [5c], in [1], the “solubility in DMSO” value is “not soluble in DMSO”. Also, the RM0 in data set [2] is given as 5.768.
As for `C=C(C)C1CCC2(COC(=O)C=C(C)C(=O)N3CCOCC3)CCC3(C)C(CCC4C5(C)CCC(O)C(C)(C)C5CCC43C)C12` (centres unmarked) [3b], the RM0 in [2] is reported as 5.086. This compound also showed an IC50 at 72 h in [11] of 24.7 µM. The IC50 is 24.8 µM in [3]; 7.42 µM in data set [4]; 8.9 µM in data set [6]; less than 10 µM in data set [6] (Homo sapiens, MV4-11, 72 h); 12.3 µM in data set [7]. Besides, in data set [3], the “Calculated Selectivity Index SI, PC-3” value was 1.0. The “Calculated Selectivity Index SI, A549” value in data set [4] was 3.3. Further, the “Calculated Selectivity Index SI, MV4-11” value in data set [6] is reported as 2.8. The “Calculated Selectivity Index SI, MCF-7” value in data set [7] is reported as 2.0.
In the case of `C#CCNC(=O)CCCC(=O)OC[C@]12CC[C@@H](C(=C)C)C1C1CCC3[C@@]4(C)CC[C@H](O)C(C)(C)C4CC[C@@]3(C)[C@]1(C)CC2` (some centres unmarked) [4a], in [2], the RM0 is reported as 5.158. This compound also registered an IC50 at 72 h in data set [11] of 5.02 µM. Besides, the “Calculated Selectivity Index SI, PC-3” value in data set [3] was 0.3. In [4], the IC50 is 29.1 µM and the “Calculated Selectivity Index SI, A549” value was 0.2. For the same compound, the “Calculated Selectivity Index SI, MV4-11” value in data set [6] is 1.2. Also, in data set [7], the 50% inhibitory concentration (IC50) came to 50 µM and the “Calculated Selectivity Index SI, MCF-7” value is reported as 0.1.
Consider `COc1cccc2c1C(=O)c1c(O)c3c(c(O)c1C2=O)C[C@@](O)(C(=O)CO)C[C@@H]3O[C@H]1C[C@H](N)[C@H](O)[C@H](C)O1` [Doxorubicin, doxorubicin, reference compound], for which, in data set [3], the IC50 turned out to be 0.43 µM and the “Calculated Selectivity Index SI, PC-3” value is reported as 0.4. Further, in [4], the IC50 amounted to 0.04 µM and the “Calculated Selectivity Index SI, A549” value is 4.5. In addition, the IC50 at 72 h in data set [5] (BALB/3T3 normal fibroblast cells) worked out at 0.18 µM. Moreover, in data set [6] (Homo sapiens, MV4-11, 72 h), the IC50 was 0.01 µM. In addition, the “Calculated Selectivity Index SI, MV4-11” value in data set [6] is given as 18.0. Further, in data set [7], the IC50 was determined as 0.08 µM and the “Calculated Selectivity Index SI, MCF-7” value was 2.3.
As for `C=C(C)[C@@H]1CC[C@]2(COC(=O)CCCC(=O)N3CCCCC3)CC[C@]3(C)C(CCC4[C@@]5(C)CC[C@H](O)C(C)(C)C5CC[C@]43C)C12` (some centres unmarked) [4c], the “solubility in DMSO” value in data set [1] is “not soluble in DMSO”. Besides, in data set [2], the RM0 is on record as 5.012.
Take `C=C(C)[C@@H]1CC[C@]2(COC(=O)c3cccc(C(=O)N4CCCCC4)c3)CC[C@]3(C)C(CCC4[C@@]5(C)CC[C@H](O)C(C)(C)C5CC[C@]43C)C12` (some centres unmarked) [7c]: in data set [1], the “solubility in DMSO” value is “not soluble in DMSO”. The RM0 in [2] is 5.773.

What is called IC50 is the midpoint of a concentration-inhibition curve.
